Results taken from US20260193264A1, “BENZOYPARAZINE PYRAZINES AND THEIR USES” (FOGHORN THERAPEUTICS INC., priority 2022, published 2026).

Tests used:
[1] = molecular target: T1, HiBit-BRG1 fusion protein in stable HeLa cell line expressing HiBit-BRG1 and LgBit (Homo sapiens, UniProt P51532); experiment: HiBiT-BRG1 cell-based degradation assay (Nano-Glo HiBiT, 24 h); details: HeLa HiBit-BRG1/LgBit cells; for DC50: read-out: BRMG1 HiBit Degradation IC50; for Dmax: top dose 30 μM, read-out: BRG1 HiBit Degradation Maximum (%)
T1 construct: expressed in transfected cells
T1 sequence (P51532 whole entry, the tested form may be a part): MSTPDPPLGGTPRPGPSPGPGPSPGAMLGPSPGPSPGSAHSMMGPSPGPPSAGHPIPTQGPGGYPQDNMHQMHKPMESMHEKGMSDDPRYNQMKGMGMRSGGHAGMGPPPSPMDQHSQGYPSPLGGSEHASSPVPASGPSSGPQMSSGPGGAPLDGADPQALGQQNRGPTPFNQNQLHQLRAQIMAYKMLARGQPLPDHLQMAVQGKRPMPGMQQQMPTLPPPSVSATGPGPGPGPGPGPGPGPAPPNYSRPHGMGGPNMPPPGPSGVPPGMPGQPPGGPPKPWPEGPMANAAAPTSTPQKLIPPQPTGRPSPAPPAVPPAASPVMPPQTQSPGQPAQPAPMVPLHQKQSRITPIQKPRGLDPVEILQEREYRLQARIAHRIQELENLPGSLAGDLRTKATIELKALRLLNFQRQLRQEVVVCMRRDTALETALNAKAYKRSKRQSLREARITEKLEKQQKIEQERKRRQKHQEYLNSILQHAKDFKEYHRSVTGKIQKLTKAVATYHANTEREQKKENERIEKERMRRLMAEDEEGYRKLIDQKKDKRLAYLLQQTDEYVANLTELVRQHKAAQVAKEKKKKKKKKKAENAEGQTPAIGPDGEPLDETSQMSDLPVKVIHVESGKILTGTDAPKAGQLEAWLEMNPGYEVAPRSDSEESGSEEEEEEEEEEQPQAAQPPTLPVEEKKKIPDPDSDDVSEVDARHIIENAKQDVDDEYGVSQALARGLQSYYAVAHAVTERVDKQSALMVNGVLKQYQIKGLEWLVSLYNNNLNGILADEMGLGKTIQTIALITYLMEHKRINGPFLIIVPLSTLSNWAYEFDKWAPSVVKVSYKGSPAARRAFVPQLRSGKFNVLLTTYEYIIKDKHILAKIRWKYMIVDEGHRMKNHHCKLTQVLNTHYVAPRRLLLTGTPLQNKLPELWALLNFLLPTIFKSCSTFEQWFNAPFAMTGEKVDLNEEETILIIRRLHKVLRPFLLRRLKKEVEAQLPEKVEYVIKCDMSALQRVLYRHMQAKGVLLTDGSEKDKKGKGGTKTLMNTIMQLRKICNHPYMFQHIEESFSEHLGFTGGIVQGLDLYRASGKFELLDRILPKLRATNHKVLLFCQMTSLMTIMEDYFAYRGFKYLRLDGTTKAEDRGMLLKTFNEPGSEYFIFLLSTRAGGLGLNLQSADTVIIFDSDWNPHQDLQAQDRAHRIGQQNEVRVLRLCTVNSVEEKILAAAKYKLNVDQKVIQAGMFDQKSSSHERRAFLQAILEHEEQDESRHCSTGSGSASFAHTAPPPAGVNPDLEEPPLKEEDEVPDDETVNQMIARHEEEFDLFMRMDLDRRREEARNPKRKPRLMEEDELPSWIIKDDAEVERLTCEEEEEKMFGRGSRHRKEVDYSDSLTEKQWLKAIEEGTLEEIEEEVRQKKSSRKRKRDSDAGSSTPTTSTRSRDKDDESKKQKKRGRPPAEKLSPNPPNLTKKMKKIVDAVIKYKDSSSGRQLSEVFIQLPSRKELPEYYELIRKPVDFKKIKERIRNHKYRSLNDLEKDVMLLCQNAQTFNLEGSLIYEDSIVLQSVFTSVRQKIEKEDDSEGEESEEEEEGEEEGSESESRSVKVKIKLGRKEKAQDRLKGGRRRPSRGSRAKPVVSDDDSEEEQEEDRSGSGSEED
How it was run: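 Degradation calculated from NanoBiT luminescence relative to DMSO-treated cells (high) and cells given 2 μM known BRM/BRG1 degrader (low). HeLa cells stably expressing HiBiT-BRG1 plus LgBiT were exposed to compound for 24 h before lytic HiBiT detection.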

[2] = molecular target: T2, HiBiT-BRM fusion protein in stable HeLa cell line (Homo sapiens, UniProt P51531); experiment: HiBiT-BRM cell-based degradation assay (Nano-Glo HiBiT Lytic Detection, 24 h); design: DC50: scale not given here; details: HeLa HiBiT-BRM cells; for DC50: read-out: BRM HiBit Degradation IC50; for BRM HiBit Degradation Maximum (%): top dose 30 μM
T2 construct: expressed in transfected cells
T2 sequence (P51531 whole entry, the tested form may be a part): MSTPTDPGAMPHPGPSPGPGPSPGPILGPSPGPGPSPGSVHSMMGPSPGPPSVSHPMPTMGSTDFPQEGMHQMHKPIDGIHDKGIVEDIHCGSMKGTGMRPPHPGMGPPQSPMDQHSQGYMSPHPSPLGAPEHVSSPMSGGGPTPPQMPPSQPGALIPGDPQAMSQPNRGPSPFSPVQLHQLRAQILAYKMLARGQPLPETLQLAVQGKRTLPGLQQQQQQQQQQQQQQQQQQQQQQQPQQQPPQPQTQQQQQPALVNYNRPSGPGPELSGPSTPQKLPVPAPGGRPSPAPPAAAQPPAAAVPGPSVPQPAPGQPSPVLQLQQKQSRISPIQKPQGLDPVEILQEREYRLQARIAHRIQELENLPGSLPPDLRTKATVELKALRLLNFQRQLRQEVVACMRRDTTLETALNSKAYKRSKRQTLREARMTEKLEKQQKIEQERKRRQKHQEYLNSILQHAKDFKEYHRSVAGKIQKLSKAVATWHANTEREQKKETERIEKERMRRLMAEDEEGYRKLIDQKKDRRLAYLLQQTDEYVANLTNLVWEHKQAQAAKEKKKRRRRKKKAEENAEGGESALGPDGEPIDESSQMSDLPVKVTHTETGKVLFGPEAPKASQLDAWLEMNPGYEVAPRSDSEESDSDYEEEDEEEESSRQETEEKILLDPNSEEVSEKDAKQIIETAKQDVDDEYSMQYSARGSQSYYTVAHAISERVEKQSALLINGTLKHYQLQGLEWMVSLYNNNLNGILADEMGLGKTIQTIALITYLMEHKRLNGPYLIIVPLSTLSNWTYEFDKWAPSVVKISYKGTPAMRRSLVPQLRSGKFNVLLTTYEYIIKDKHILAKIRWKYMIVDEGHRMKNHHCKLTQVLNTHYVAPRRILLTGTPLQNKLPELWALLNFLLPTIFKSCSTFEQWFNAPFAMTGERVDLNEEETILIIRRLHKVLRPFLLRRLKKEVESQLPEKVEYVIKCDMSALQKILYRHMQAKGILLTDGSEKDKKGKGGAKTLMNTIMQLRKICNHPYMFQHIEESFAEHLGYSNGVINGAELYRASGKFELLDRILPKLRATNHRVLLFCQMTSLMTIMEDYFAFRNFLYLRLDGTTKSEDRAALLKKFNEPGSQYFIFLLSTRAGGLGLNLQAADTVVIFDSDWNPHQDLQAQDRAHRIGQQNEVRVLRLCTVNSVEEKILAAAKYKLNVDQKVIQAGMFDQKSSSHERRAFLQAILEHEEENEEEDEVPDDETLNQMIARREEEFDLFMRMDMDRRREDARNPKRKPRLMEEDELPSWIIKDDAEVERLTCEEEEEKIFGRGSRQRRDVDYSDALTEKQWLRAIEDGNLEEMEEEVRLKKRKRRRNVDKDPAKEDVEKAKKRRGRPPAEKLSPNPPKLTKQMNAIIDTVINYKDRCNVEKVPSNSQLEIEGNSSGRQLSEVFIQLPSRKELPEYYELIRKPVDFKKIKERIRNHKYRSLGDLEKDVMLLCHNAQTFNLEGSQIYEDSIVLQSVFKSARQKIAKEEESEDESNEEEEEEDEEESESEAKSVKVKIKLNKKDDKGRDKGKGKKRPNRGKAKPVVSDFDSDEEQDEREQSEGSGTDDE
How it was run: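 Percent degradation was scaled between DMSO-treated cells and cells given 2 μM of a known BRM/BRG1 degrader. Readout was NanoBiT luminescence after lytic detection. HeLa cells stably expressing HiBiT-BRM were dosed for 24 h, 10 points, 3-fold steps from 30 μM final, in duplicate.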

Row | DC50 [1] [µM] | Dmax [1] [%] | DC50 [2] [µM] | Compound | BRM HiBit Degradation Maximum (%) [2]
1 | < 0.01 | > 50 | < 0.01 | Cc1ncsc1-c1ccc([C@H](C)NC(=O)[C@@H]2C[C@@H](O)CN2C(=O)[C@H](C(C)C)n2cc(N3CC4(CN(c5ccc6cc(-c7ccccc7O)nnc6c5)C4)C3)nn2)cc1 [Compound 169, (2S,4R)-4-hydroxy-1-((S)-2-(4-(6-(3-(2-hydroxyphenyl)cinnolin-7-yl)-2,6-diazaspiro[3.3]heptan-2-yl)-1H-1,2,3-triazol-1-yl)-3-methylbutanoyl)-N-((S)-1-(4-(4-methylthiazol-5-yl)phenyl)ethyl)pyrrolidine-2-carboxamide] | A (“A” indicates maximum degradation ≥75%)
2 | – | < 50 | > 0.01 | Cc1ncsc1-c1ccc([C@H](C)NC(=O)[C@@H]2C[C@@H](O)CN2C(=O)[C@H](C(C)C)n2cc(-c3cc4cc(-c5ccccc5O)nnc4cc3C#N)nn2)cc1 [Compound 170, (2S,4R)-1-[(2S)-2-{4-[7-cyano-3-(2-hydroxyphenyl)cinnolin-6-yl]-1,2,3-triazol-1-yl}-3-methylbutanoyl]-4-hydroxy-N-[(1S)-1-[4-(4-methyl-1,3-thiazol-5-yl)phenyl]ethyl]pyrrolidine-2-carboxamide] | B (“B” indicates maximum degradation ≥50%)
3 | < 0.01 | > 75 | < 0.01 | Cc1ncsc1-c1ccc([C@H](C)NC(=O)[C@@H]2C[C@@H](O)CN2C(=O)[C@H](C(C)C)n2cc(-c3cc4cc(-c5ccccc5O)nnc4cc3C(F)F)nn2)cc1 [Compound 171, (2S,4R)-1-((S)-2-(4-(7-(difluoromethyl)-3-(2-hydroxyphenyl)cinnolin-6-yl)-1H-1,2,3-triazol-1-yl)-3-methylbutanoyl)-4-hydroxy-N-((S)-1-(4-(4-methylthiazol-5-yl)phenyl)ethyl)pyrrolidine-2-carboxamide] | A (“A” indicates maximum degradation ≥75%)
4 | < 0.01 | > 50 | < 0.01 | Cc1ncsc1-c1ccc([C@H](C)NC(=O)[C@@H]2C[C@@H](O)CN2C(=O)[C@H](C(C)C)n2cc(N3CC4(CN(c5ccc6nnc(-c7ccccc7O)cc6c5)C4)C3)nn2)cc1 [Compound 172, (2S,4R)-4-hydroxy-1-((S)-2-(4-(6-(3-(2-hydroxyphenyl)cinnolin-6-yl)-2,6-diazaspiro[3.3]heptan-2-yl)-1H-1,2,3-triazol-1-yl)-3-methylbutanoyl)-N-((S)-1-(4-(4-methylthiazol-5-yl)phenyl)ethyl)pyrrolidine-2-carboxamide] | A (“A” indicates maximum degradation ≥75%)
5 | < 0.01 | > 75 | < 0.01 | Cc1ncsc1-c1ccc([C@H](C)NC(=O)[C@@H]2C[C@@H](O)CN2C(=O)[C@H](C(C)C)n2cc(-c3cc4cc(-c5ccccc5O)nnc4cc3F)nn2)cc1 [Compound 176, (2S,4R)-1-((S)-2-(4-(7-fluoro-3-(2-hydroxyphenyl)cinnolin-6-yl)-1H-1,2,3-triazol-1-yl)-3-methylbutanoyl)-4-hydroxy-N-((S)-1-(4-(4-methylthiazol-5-yl)phenyl)ethyl)pyrrolidine-2-carboxamide] | A (“A” indicates maximum degradation ≥75%)

The remaining lines, values behind:

Row | Compound | DC50 [1] [µM] | Dmax [1] [%] | DC50 [2] [µM] | BRM HiBit Degradation Maximum (%) [2]
6 | Cc1ncsc1-c1ccc([C@H](C)NC(=O)[C@@H]2C[C@@H](O)CN2C(=O)[C@@H](c2cc(N3CC4(CN(c5cc(C#N)c6cc(-c7ccccc7O)nnc6c5)C4)C3)no2)C(C)C)cc1 [Compound 173, (2S,4R)-1-((R)-2-(3-(6-(5-cyano-3-(2-hydroxyphenyl)cinnolin-7-yl)-2,6-diazaspiro [3.3]heptan-2-yl)isoxazol-5-yl)-3-methylbutanoyl)-4-hydroxy-N-((S)-1-(4-(4-methylthiazol-5-yl)phenyl)ethyl)pyrrolidine-2-carboxamide] | – | < 50 | > 0.01 | B (“B” indicates maximum degradation ≥50%)
7 | Cc1ncsc1-c1ccc([C@H](C)NC(=O)[C@@H]2C[C@@H](O)CN2C(=O)[C@@H](c2cccc(N3CC4(C3)CN(c3ccc5cc(-c6ccccc6O)nnc5c3)C4)c2)C(C)C)cc1 [Compound 174, (2S,4R)-4-hydroxy-1-((R)-2-(3-(6-(3-(2-hydroxyphenyl)cinnolin-7-yl)-2,6-diazaspiro[3.3]heptan-2-yl)phenyl)-3-methylbutanoyl)-N—((S)-1-(4-(4-methylthiazol-5-yl)phenyl)ethyl)pyrrolidine-2-carboxamide] | – | < 50 | > 0.01 | A (“A” indicates maximum degradation ≥75%)
8 | Cc1ncsc1-c1ccc([C@H](C)NC(=O)[C@@H]2C[C@@H](O)CN2C(=O)[C@@H](c2ccnc(N3CC4(CN(c5ccc6cc(-c7ccccc7O)nnc6c5)C4)C3)c2)C(C)C)cc1 [Compound 175, (2S,4R)-4-hydroxy-1-[(2R)-2-(2-{6-[3-(2-hydroxyphenyl)cinnolin-7-yl]-2,6-diazaspiro[3.3]heptan-2-yl}pyridin-4-yl)-3-methylbutanoyl]-N-[(1S)-1-[4-(4-methyl-1,3-thiazol-5-yl)phenyl]ethyl]pyrrolidine-2-carboxamide] | – | < 50 | > 0.01 | A (“A” indicates maximum degradation ≥75%)
9 | CC(C)[C@@H](C(=O)N1C[C@H](O)C[C@H]1C(=O)N[C@@H](C)c1ccc(F)cc1)n1cc(-c2ccc3nnc(-c4cccc(F)c4O)cc3c2)nn1 [Compound 177, (2S,4R)-1-((S)-2-(4-(3-(3-fluoro-2-hydroxyphenyl)cinnolin-6-yl)-1H-1,2,3-triazol-1-yl)-3-methylbutanoyl)-N-((S)-1-(4-fluorophenyl)ethyl)-4-hydroxypyrrolidine-2-carboxamide] | > 0.01 | > 75 | < 0.01 | A (“A” indicates maximum degradation ≥75%)
10 | CC(C)[C@@H](C(=O)N1C[C@H](O)C[C@H]1C(=O)N[C@@H](C)c1ccc(Br)cc1)n1cc(-c2ccc3nnc(-c4cccc(F)c4O)cc3c2)nn1 [Compound 178, (2S,4R)-N-((S)-1-(4-bromophenyl)ethyl)-1-((S)-2-(4-(3-(3-fluoro-2-hydroxyphenyl)cinnolin-6-yl)-1H-1,2,3-triazol-1-yl)-3-methylbutanoyl)-4-hydroxypyrrolidine-2-carboxamide] | > 0.01 | > 75 | < 0.01 | A (“A” indicates maximum degradation ≥75%)
11 | Cc1ncsc1-c1ccc([C@H](C)NC(=O)[C@@H]2C[C@@H](O)CN2C(=O)[C@@H](c2cc(N3CC4(C3)CN(c3cc5nnc(-c6ccccc6O)cc5cc3F)C4)no2)C(C)C)cc1 [Compound 179, (2S,4R)-1-((R)-2-(3-(6-(6-fluoro-3-(2-hydroxyphenyl)cinnolin-7-yl)-2,6-diazaspiro [3.3]heptan-2-yl)isoxazol-5-yl)-3-methylbutanoyl)-4-hydroxy-N-((S)-1-(4-(4-methylthiazol-5-yl)phenyl)ethyl)pyrrolidine-2-carboxamide] | – | < 50 | < 0.01 | A (“A” indicates maximum degradation ≥75%)
12 | Cc1ncsc1-c1ccc([C@H](C)NC(=O)[C@@H]2C[C@@H](O)CN2C(=O)[C@@H](c2cc(N3CC4(C3)CN(c3cc5nnc(-c6cccc(F)c6O)cc5cc3C3CC3)C4)no2)C(C)C)cc1 [Compound 180, (2S,4R)-1-((R)-2-(3-(6-(6-cyclopropyl-3-(3-fluoro-2-hydroxyphenyl)cinnolin-7-yl)-2,6-diazaspiro[3.3]heptan-2-yl)isoxazol-5-yl)-3-methylbutanoyl)-4-hydroxy-N-((S)-1-(4-(4-methylthiazol-5-yl)phenyl)ethyl)pyrrolidine-2-carboxamide] | – | < 50 | < 0.01 | A (“A” indicates maximum degradation ≥75%)
13 | CNC(=O)[C@@H]1C[C@@H](O)CN1C(=O)[C@@H](c1cc(N2CC3(CN(c4ccc5nnc(-c6ccccc6O)cc5c4)C3)C2)no1)C(C)C [Compound 181, (2S,4R)-4-hydroxy-1-((R)-2-(3-(6-(3-(2-hydroxyphenyl)cinnolin-6-yl)-2,6-diazaspiro[3.3]heptan-2-yl)isoxazol-5-yl)-3-methylbutanoyl)-N-methylpyrrolidine-2-carboxamide] | – | < 50 | > 0.1 | A (“A” indicates maximum degradation ≥75%)
14 | Cc1ncsc1-c1ccc([C@H](C)NC(=O)[C@@H]2C[C@@H](O)CN2C(=O)[C@@H](c2cc(N3CCC(Oc4ccc5nnc(-c6ccccc6O)cc5c4)CC3)no2)C(C)C)cc1 [Compound 182, (2S,4R)-4-hydroxy-1-((R)-2-(3-(4-((3-(2-hydroxyphenyl)cinnolin-6-yl)oxy)piperidin-1-yl)isoxazol-5-yl)-3-methylbutanoyl)-N-((S)-1-(4-(4-methylthiazol-5-yl)phenyl)ethyl)pyrrolidine-2-carboxamide] | > 0.01 | > 75 | < 0.01 | A (“A” indicates maximum degradation ≥75%)
15 | Cc1ncsc1-c1ccc([C@H](C)NC(=O)[C@@H]2C[C@@H](O)CN2C(=O)[C@@H](c2cc(N3CCC(Oc4ccc5cc(-c6ccccc6O)nnc5c4)CC3)no2)C(C)C)cc1 [Compound 183, (2S,4R)-4-hydroxy-1-((R)-2-(3-(4-((3-(2-hydroxyphenyl)cinnolin-7-yl)oxy)piperidin-1-yl)isoxazol-5-yl)-3-methylbutanoyl)-N-((S)-1-(4-(4-methylthiazol-5-yl)phenyl)ethyl)pyrrolidine-2-carboxamide] | > 0.01 | > 50 | < 0.01 | A (“A” indicates maximum degradation ≥75%)
